Assay results reported in article PMC10824152 (Journal of medicinal chemistry, 2023).

Tests used:
[1] = biological target: rat nNOS (Rattus norvegicus, UniProt P29476)
[2] = biological target: human nNOS (Homo sapiens, UniProt P29475); settings: ratio of Ki values versus 17

COc1cc(N)nc(CCc2cc(CCN(C)C)cc(F)c2F)c1.Cl.Cl [Compound 18, 6-(5-(2-(Dimethylamino)ethyl)-2,3-difluorophenethyl)-4-methoxypyridin-2-amine dihydrochloride]
Loss in potency as compared to 17, rat nNOS [1]: 5 fold

Cc1cc(CCc2cc(CCN(C)C)cc(F)c2F)nc(N)n1.Cl.Cl [Compound 19, 4-(5-(2-(Dimethylamino)ethyl)-2,3-difluorophenethyl)-6-methylpyrimidin-2-amine dihydrochloride]
Loss in potency as compared to 17, rat nNOS [1]: 438 fold

CN(C)CCc1cc(F)c(F)c(CCc2cc(C(F)F)cc(N)n2)c1.Cl.Cl [Compound 23, 4-(Difluoromethyl)-6-(5-(2-(dimethylamino)ethyl)-2,3-difluorophenethyl)pyridin-2-amine dihydrochloride]
Lower potency than 17, human nNOS [2]: 14 fold
